pIC50, pKi: −log10 of the molar value.
Columns and labels:
[1] = test system: T-ALL patient derived xenograft models; conditions: cited from earlier work
lymphoid malignancies = conditions: clinical studies; cited from earlier work
[2] = test system: animal models of arthritis and lupus; conditions: mice; cited from earlier work
lymphocyte proliferation = conditions: in vitro; cited from earlier work
allogeneic T-cell = conditions: in vitro; cited from earlier work
MOLT-4 cells = experiment: MOLT-4 cell viability using MTT assay; format: cell-based; conditions: Homo sapiens, MOLT-4, 48 h, 48 h exposure
Description: MTT colorimetric assay is based on the mitochondrial reduction of tetrazolium salt by living cells.
Cells were cultured at 37° C. in a humidified atmosphere containing 5% CO2. […] At the end of incubation time, 15 μL of MTT solution (5 mg/ml) were added per well and the cells were incubated for another 4 h. […] IC50s were calculated using standard four-parametric curve fitting.

[3] = biological target: GST(1-218)-(FACTOR_XA)-hsBCLXL(2-209) (Homo sapiens (Human), UniProt Q07817); experiment: Fluorescence polarisation assay; format: binding
Sequence of GST(1-218)-(FACTOR_XA)-hsBCLXL(2-209) (Q07817 other isoform, or with tags, fused parts or gaps): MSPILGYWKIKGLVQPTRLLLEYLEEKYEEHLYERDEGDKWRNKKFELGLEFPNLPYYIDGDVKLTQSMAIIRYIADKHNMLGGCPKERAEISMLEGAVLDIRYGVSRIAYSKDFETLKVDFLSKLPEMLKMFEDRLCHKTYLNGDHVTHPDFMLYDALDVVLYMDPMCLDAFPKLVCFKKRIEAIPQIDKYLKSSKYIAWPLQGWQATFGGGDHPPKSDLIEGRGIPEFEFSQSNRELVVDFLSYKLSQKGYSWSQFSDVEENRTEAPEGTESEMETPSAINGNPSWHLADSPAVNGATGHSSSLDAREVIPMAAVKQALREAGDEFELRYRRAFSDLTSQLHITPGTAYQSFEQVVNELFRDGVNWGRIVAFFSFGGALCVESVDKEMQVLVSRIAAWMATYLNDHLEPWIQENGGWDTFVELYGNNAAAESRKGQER
Description: Fluorescence polarization measures the rotation of a fluorescing species in solution, the larger the molecule the more polarized the fluorescence emission.
(GST UniProtKB® primary accession number P08515 and BCLXL UniProtKB® primary accession number Q07817-1), • resulting in an increase in anisotropy. If a compound is added which competitively binds to the same site as the probe, thereby releasing it, anisotropy decreases due to the increased amount of free probe.
An 11-point serial dilution of each compound was prepared in DMSO, the final buffer conditions were 10 mM 4-(2-hydroxyethyl)-1-piperazineethanesulfonic acid [HEPES], 150 mM NaCl, 0.05% Tween 20, pH 7.4 and 5% DMSO. The final protein concentration in the assay was 20 nM with the fluorescent probe present at 10 nM. […] 1; 37 (WebServer issue): W441-W445.

H146 cells = experiment: H146 cell viability using MTT assay; format: cell-based; conditions: Homo sapiens, NCI-H146, 48 h exposure
How it was run: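 IC50 comes from four-parameter fits of optical density at 540 nm. Readout used 4 h MTT reduction followed by overnight SDS/HCl solubilisation, after 48 h compound exposure across nine 3.16-fold dilutions in triplicate. Culture medium was RPMI 1640 with 10% heat-inactivated FBS, antibiotics and L-glutamine.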

[4] = biological target: His-His-(EK)-hsBCLXL(2-197)[N197C] (Homo sapiens (Human), UniProt Q07817, N197C); experiment: Fluorescence quenching assay; format: binding; conditions: 1 nM Cy5-labelled protein, 400 nM PUMA peptide, 2 hours at 23° C.; KI determined from IC50
Sequence of His-His-(EK)-hsBCLXL(2-197)[N197C] (Q07817 2-197 N197C): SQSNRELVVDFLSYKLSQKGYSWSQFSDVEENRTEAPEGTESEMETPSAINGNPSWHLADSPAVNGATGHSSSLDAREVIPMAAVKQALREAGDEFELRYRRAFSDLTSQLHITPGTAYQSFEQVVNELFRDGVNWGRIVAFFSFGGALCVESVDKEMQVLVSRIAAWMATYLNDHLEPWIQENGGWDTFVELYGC
How it was run: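 Ki values converted from IC50s, measured as fluorescence increase (Ex 620/Em 680 nm) after 2 h at 23° C. Compounds were titrated over 11 points against 1 nM Cy5-BCL-xL and 400 nM quencher-tagged PUMA peptide in pH 7.4 HEPES (10 mM), 150 mM NaCl, 0.05% Tween 20, 5% DMSO.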

[5] = test system: pre-clinical models of T-ALL and different types of solid tumors; conditions: cited from earlier work
Molt-4 = conditions: xenograft model Molt-4; cited from earlier work

Row | SMILES | pIC50 (MOLT-4 cells) | pKi [3] | pIC50 (H146 cells) | pKi [4] | also measured
1 | CC1(C)CCC(c2ccc(Cl)cc2)=C(CN2CCN(c3ccc(C(=O)NS(=O)(=O)c4ccc(N[C@H](CCN5CCOCC5)CSc5ccccc5)c(S(=O)(=O)C(F)(F)F)c4)cc3)CC2)C1 [ABT-263] |  |  |  |  | activity [1]: promising activity; antitumor activity (lymphoid malignancies): objective antitumor activity
2 | CN(C)CC[C@H](CSc1ccccc1)Nc1ccc(S(=O)(=O)NC(=O)c2ccc(N3CCN(Cc4ccccc4-c4ccc(Cl)cc4)CC3)cc2)cc1[N+](=O)[O-] [ABT-737] |  |  |  |  | disease severity [2]: significant decrease in disease severity; lymphocyte proliferation (lymphocyte proliferation): potent inhibition of lymphocyte proliferation; activity [1]: promising activity; allogeneic T-cell activation, proliferation, and cytotoxicity (allogeneic T-cell): prevented allogeneic T-cell activation, proliferation, and cytotoxicity
3 | COCCCC1(Cn2ncc(-c3sc(N4CCc5c4nnc(Nc4nc6ccccc6s4)c5C)nc3C(=O)O)c2C)CCCCC1 [Example 17, 2-{3-[(1,3-Benzothiazol-2-yl)amino]-4-methyl-5H,6H,7H-pyrrolo[2,3-c]pyridazin-7-yl}-5-(1-{[1-(3-methoxypropyl)cyclohexyl]methyl}-5-methyl-1H-pyrazol-4-yl)-1,3-thiazole-4-carboxylic acid] | 6.89 | 8.70 | 6.41 |  | 
4 | Cc1c(Nc2nc3ccccc3s2)nnc2c1CCN2c1cccc(C(=O)O)n1 [Example 20, 6-{3-[(1,3-Benzothiazol-2-yl)amino]-4-methyl-5H,6H,7H-pyrrolo[2,3-c]pyridazin-7-yl}pyridine-2-carboxylic acid] | 6.79 | 7.07 | 5.51 |  | 
5 | Cc1c(Nc2nc3ccccc3s2)nnc2c1CCCN2c1cccc(C(=O)O)n1 [Example 21, 6-{3-[(1,3-Benzothiazol-2-yl)amino]-4-methyl-5H,6H,7H,8H-pyrido[2,3-c]pyridazin-8-yl}pyridine-2-carboxylic acid] | 5.37 | 5.80 | < 4.82 |  | 
6 | Cc1c(Nc2nc3ccccc3s2)nnc2c1CCN2c1nc(C(=O)O)c(CCCOc2ccc(C#CCN(C)C)cc2F)s1 [Example 22, 2-{3-[(1,3-Benzothiazol-2-yl)amino]-4-methyl-5H,6H,7H-pyrrolo[2,3-c]pyridazin-7-yl}-5-(3-{4-[3-(dimethylamino)prop-1-yn-1-yl]-2-fluorophenoxy}propyl)-1,3-thiazole-4-carboxylic acid] | 8.47 | 8.52 | 7.90 | 10.60 | 
7 | Cc1c(Nc2nc3ccccc3s2)nnc2c1ccn2-c1ccc(-c2cnn(CC34CC5CC(CC(C5)C3)C4)c2C)c(C(=O)O)n1 [Example 23] | 9.02 | 8.96 | 8.56 | 10.29 | 
8 | Cc1c(Nc2nc3ccccc3s2)nnc2c1CCCN2c1cccc(C(=O)O)c1 [Example 26, 3-{3-[(1,3-Benzothiazol-2-yl)amino]-4-methyl-5H,6H,7H,8H-pyrido[2,3-c]pyridazin-8-yl}benzoic acid] | ≤ 4.87 | 4.82 | < 4.82 |  | 
9 | Cc1c(Nc2nc3ccccc3s2)nnc2c1CCCN2c1nc(C(=O)O)c(CCCOc2ccc(C#CCN(C)C)cc2F)s1 [Example 27, 2-[3-(1,3-Benzothiazol-2-ylamino)-4-methyl-6,7-dihydro-5H-pyrido[2,3-c]pyridazin-8-yl]-5-[3-[4-[3-(dimethylamino)prop-1-ynyl]-2-fluoro-phenoxy]propyl]thiazole-4-carboxylic acid] |  | > 9.00 | 8.19 | 11.07 | 
10 | O=C(O)c1csc(N2CCc3c2nnc(Nc2nc4ccccc4s2)c3C2CC2)n1 [Example 28, 2-{3-[(1,3-Benzothiazol-2-yl)amino]-4-cyclopropyl-5H,6H,7H-pyrrolo[2,3-c]pyridazin-7-yl}-1,3-thiazole-4-carboxylic acid] | 6.06 | 7.85 | 5.50 |  | 
11 | CN(C)CC#Cc1ccc(OCCCc2sc(N3CCCc4c3nnc(Nc3nc5ccccc5s3)c4C3CC3)nc2C(=O)O)c(F)c1 [Example 30, 2-{3-[(1,3-Benzothiazol-2-yl)amino]-4-cyclopropyl-5H,6H,7H,8H-pyrido[2,3-c]pyridazin-8-yl}-5-(3-{4-[3-(dimethylamino)prop-1-yn-1-yl]-2-fluorophenoxy}propyl)-1,3-thiazole-4-carboxylic acid] | 9.11 | > 9.00 | 8.18 | 11.44 | 
12 | Cc1c(Nc2nc3ccccc3s2)nnc2c1CCCCN2c1nc(C(=O)O)c(CCCOc2ccc(C#CCN(C)C)cc2F)s1 [Example 31, 2-{3-[(1,3-Benzothiazol-2-yl)amino]-4-methyl-5H,6H,7H,8H,9H-pyridazino[3,4-b]azepin-9-yl}-5-(3-{4-[3-(dimethylamino)prop-1-yn-1-yl]-2-fluorophenoxy}propyl)-1,3-thiazole-4-carboxylic acid] | 7.83 | > 9.00 | 7.05 | 11.09 | 
13 | Cc1c(Nc2nc3ccccc3s2)nnc2c1CCCN2c1nc(C(=O)O)c(CCCOc2ccc(CN)cc2F)s1 [Example 35, 5-{3-[4-(Aminomethyl)-2-fluorophenoxy]propyl}-2-{3-[(1,3-benzothiazol-2-yl)amino]-4-methyl-5H,6H,7H,8H-pyrido[2,3-c]pyridazin-8-yl}-1,3-thiazole-4-carboxylic acid] | 7.52 | > 9.00 | 7.20 | 11.11 | 
14 | Cc1c(Nc2nc3ccccc3s2)nnc2c1CCCN2c1nc(C(=O)O)c(CCCOc2ccc(CCCN(C)C)cc2F)s1 [Example 36, 2-{3-[(1,3-Benzothiazol-2-yl)amino]-4-methyl-5H,6H,7H,8H-pyrido[2,3-c]pyridazin-8-yl}-5-(3-{4-[3-(dimethylamino)propyl]-2-fluorophenoxy}propyl)-1,3-thiazole-4-carboxylic acid] |  | > 9.00 | 8.26 | 11.77 | 
15 | CN(C)CC#Cc1ccc(OCCCc2sc(N3CCc4cccc(C(=O)Nc5nc6ccccc6s5)c4C3)nc2C(=O)O)c(F)c1 [Example A-1155463] |  |  |  |  | in vivo activity [5]: exhibited in vivo activity
16 | Cc1c(-c2ccc(N3CCc4cccc(C(=O)Nc5nc6ccccc6s5)c4C3)nc2C(=O)O)cnn1CC12CC3CC(CC(C3)C1)C2 [Example A-1331852] |  |  |  |  | in vitro and in vivo activity (Molt-4): in vitro and in vivo activity; in vivo activity [5]: exhibited in vivo activity

Source: patent US12570648B2, “6,7-dihydro-5H-pyrido[2,3-c]pyridazine derivatives and related compounds as Bcl-xL protein inhibitors and pro-apoptotic agents for treating cancer” (LES LABORATOIRES SERVIER, priority 2019, dated 2026)
